Experimental data published in patent US10738040B2, “Compounds, compositions, and methods for increasing CFTR activity” (Proteostasis Therapeutics, Inc., priority 2014, dated 2020).

Target: T1, ΔF508-CFTR (Homo sapiens, UniProt P13569, DEL508-508)
T1 construct: Primary lung epithelial cells homozygous for the Cystic Fibrosis-causing ΔF508 mutation were differentiated; endogenous in cells; host or cells: primary human lung (bronchial) epithelial cells homozygous for ΔF508, differentiated at air-liquid interface
T1 sequence (P13569 with tags, fused parts or gaps DEL508-508): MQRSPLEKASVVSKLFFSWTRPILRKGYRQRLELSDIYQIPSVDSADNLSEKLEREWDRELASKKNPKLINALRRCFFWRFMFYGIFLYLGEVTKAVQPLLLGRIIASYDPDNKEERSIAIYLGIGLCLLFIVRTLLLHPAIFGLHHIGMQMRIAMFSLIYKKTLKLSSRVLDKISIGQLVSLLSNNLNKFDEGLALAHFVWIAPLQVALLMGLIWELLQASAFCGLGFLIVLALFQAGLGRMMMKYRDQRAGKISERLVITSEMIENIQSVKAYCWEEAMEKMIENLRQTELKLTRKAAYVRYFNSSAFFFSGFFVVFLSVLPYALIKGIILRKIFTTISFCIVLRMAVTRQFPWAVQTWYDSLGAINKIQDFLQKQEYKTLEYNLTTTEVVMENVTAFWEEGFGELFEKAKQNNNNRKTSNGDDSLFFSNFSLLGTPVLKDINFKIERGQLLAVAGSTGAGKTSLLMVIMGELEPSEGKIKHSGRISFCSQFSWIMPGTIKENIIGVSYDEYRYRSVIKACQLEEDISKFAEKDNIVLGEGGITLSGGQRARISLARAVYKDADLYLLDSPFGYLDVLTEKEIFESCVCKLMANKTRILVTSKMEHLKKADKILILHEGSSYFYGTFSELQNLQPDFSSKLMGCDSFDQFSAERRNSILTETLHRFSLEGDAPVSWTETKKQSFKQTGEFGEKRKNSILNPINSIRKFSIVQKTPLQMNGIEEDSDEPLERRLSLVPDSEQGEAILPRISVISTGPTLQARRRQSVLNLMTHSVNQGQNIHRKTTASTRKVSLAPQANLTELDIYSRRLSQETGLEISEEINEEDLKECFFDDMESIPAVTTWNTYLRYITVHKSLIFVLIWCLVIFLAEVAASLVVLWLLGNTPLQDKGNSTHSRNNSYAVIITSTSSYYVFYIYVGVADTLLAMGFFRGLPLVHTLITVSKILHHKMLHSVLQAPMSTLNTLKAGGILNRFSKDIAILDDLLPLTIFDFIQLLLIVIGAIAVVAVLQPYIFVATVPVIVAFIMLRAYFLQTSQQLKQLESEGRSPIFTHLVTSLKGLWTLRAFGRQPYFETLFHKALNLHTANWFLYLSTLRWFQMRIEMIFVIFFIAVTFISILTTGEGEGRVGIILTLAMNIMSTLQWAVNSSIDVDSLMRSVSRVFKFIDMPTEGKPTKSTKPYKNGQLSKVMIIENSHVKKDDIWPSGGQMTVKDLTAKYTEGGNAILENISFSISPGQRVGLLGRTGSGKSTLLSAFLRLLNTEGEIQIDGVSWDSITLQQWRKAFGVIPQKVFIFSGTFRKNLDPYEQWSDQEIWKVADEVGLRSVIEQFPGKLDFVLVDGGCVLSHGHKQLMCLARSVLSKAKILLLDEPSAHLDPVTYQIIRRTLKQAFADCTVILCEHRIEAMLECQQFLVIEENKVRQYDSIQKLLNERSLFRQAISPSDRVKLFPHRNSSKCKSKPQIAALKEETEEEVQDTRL
Assay: hBE equivalent current (Ieq) assay
Format: cell-based
Conditions: compound at 10 uM and VX-809 at 1 uM, relative to VX-809 (1 uM); primary lung epithelial cells homozygous for ΔF508, 24 hours treatment; AUC of equivalent chloride current
Method: ii. hBE Equivalent Current (Ieq) Assay
Primary lung epithelial cells homozygous for the Cystic Fibrosis-causing ΔF508 mutation were differentiated for a minimum of 4 weeks in an air-liquid interface on Costar 24 well HTS filter plates prior to the equivalent current (Ieq) measurements. Cells were apically mucus-washed for 30 minutes 24 h prior to treatment with compounds. The basolateral media was removed and replaced with media containing the compound of interest diluted to its final concentration from DMSO stocks. Treated cells were incubated at 37° C. and 5% CO2 for 24 hours. At the end of the treatment period, the media was changed to the Ieq experimental solution for 30 minutes before the experiment and plates are maintained in a CO2-free incubator during this period. The plates containing the cells were then placed in pre-warmed heating blocks at 36° ° C.±0.5 for 15 minutes before measurements are taken. The transepithelial voltage (VT) and conductance (GT) were measured using a custom 24 channel current clamp (TECC-24) with 24 well electrode manifold. The Ieq assay measurements were made following additions with standardized time periods: • 1. The baseline VT and GT values were measured for approximately 20 minutes. • 2. Benzamil was added to block ENaC for 15 minutes. • 3. Forskolin plus VX-770 (ivacaftor) were added to maximally activate ΔF508-CFTR for 27 minutes. • 4. Bumetanide was added to inhibit the NaK2Cl cotransporter and shut-off secretion of chloride.
The activity data captured was the area under the curve (AUC) for the traces of the equivalent chloride current. The AUC was collected from the time of the forskolin/VX-770 addition until the inhibition by bumetanide addition. Correction in response to compound treatment was scored as the increase in the AUC for compound-treated samples over that of vehicle-treated samples.

Structure (SMILES) | Ieq (% VX-809)
C[C@@H](O)c1nc([C@H]2C[C@@H](NC(=O)c3cc(-c4ccccc4)on3)C2)no1 | * (activity 100-200% of VX-809 (1 uM) with compound at 10 uM and VX-809 at 1 uM)
C[C@@H](O)c1nnc([C@H]2C[C@@H](NC(=O)c3cc(-c4cccc(F)c4)on3)C2)o1 | * (activity 100-200% of VX-809 (1 uM) with compound at 10 uM and VX-809 at 1 uM)
C[C@@H](O)c1nnc([C@H]2C[C@@H](NC(=O)c3cc(-c4ccc(O)c(O)c4)on3)C2)o1 | * (activity 100-200% of VX-809 (1 uM) with compound at 10 uM and VX-809 at 1 uM)
C[C@H](O)c1ccn([C@H]2C[C@H](NC(=O)c3cc(-c4ccccc4)on3)C2)n1 | ** (activity ≥200% of VX-809 (1 uM) with compound at 10 uM and VX-809 at 1 uM)
C[C@@H](O)c1nnc(C2CC(NC(=O)c3cc(-c4ccccc4F)on3)C2)o1 (some centres unmarked) | * (activity 100-200% of VX-809 (1 uM) with compound at 10 uM and VX-809 at 1 uM)
O=C(N[C@H]1C[C@H](c2nnc(C3CCC3)o2)C1)c1cc(-c2ccccc2)on1 | ** (activity ≥200% of VX-809 (1 uM) with compound at 10 uM and VX-809 at 1 uM)
C[C@@H](O)c1nnc([C@H]2C[C@@H](NC(=O)c3cc(-c4ccc(O)cc4)on3)C2)o1 | * (activity 100-200% of VX-809 (1 uM) with compound at 10 uM and VX-809 at 1 uM)
C[C@H](O)c1nnc(CC2CC(NC(=O)c3cc(-c4ccccc4)on3)C2)o1 (some centres unmarked) | * (activity 100-200% of VX-809 (1 uM) with compound at 10 uM and VX-809 at 1 uM)
C[C@@H](O)c1noc([C@H]2C[C@@H](NC(=O)c3cc(-c4ccccc4)on3)C2)n1 | * (activity 100-200% of VX-809 (1 uM) with compound at 10 uM and VX-809 at 1 uM)
O=C(N[C@H]1C[C@@H](c2nnc(CO)o2)C1)c1cc(-c2ccccc2)on1 | ** (activity ≥200% of VX-809 (1 uM) with compound at 10 uM and VX-809 at 1 uM)
C[C@@H](O)c1nnc(C[C@H]2C[C@@H](NC(=O)c3cc(-c4ccccc4)on3)C2)o1 | ** (activity ≥200% of VX-809 (1 uM) with compound at 10 uM and VX-809 at 1 uM)
C[C@@H](O)c1nnc(C[C@H]2C[C@@H](NC(=O)c3cc(-c4ccccc4)on3)C2)s1 | ** (activity ≥200% of VX-809 (1 uM) with compound at 10 uM and VX-809 at 1 uM)
O=C(NC1CC(n2ccc(CO)n2)C1)c1cc(-c2ccccc2)on1 (centres unmarked) | ** (activity ≥200% of VX-809 (1 uM) with compound at 10 uM and VX-809 at 1 uM)
C[C@H](O)c1nnc(C[C@H]2C[C@H](NC(=O)c3cc(-c4ccccc4)on3)C2)o1 | ** (activity ≥200% of VX-809 (1 uM) with compound at 10 uM and VX-809 at 1 uM)
C[C@@H](O)c1nnc([C@H]2C[C@@H](NC(=O)c3cc(-c4ccc(F)cc4F)on3)C2)o1 | * (activity 100-200% of VX-809 (1 uM) with compound at 10 uM and VX-809 at 1 uM)
CS(=O)(=O)NC[C@H]1C[C@@H](NC(=O)c2cc(-c3ccccc3)on2)C1 | * (activity 100-200% of VX-809 (1 uM) with compound at 10 uM and VX-809 at 1 uM)
C[C@H](O)c1cn([C@H]2C[C@H](NC(=O)c3cc(-c4ccccc4)on3)C2)nn1 | ** (activity ≥200% of VX-809 (1 uM) with compound at 10 uM and VX-809 at 1 uM)
C[C@H](O)c1noc(C2CC(NC(=O)c3cc(-c4ccccc4)on3)C2)n1 (some centres unmarked) | ** (activity ≥200% of VX-809 (1 uM) with compound at 10 uM and VX-809 at 1 uM)
C[C@H](O)c1nc([C@H]2C[C@@H](NC(=O)c3cc(-c4ccccc4)on3)C2)no1 | * (activity 100-200% of VX-809 (1 uM) with compound at 10 uM and VX-809 at 1 uM)
C[C@H](O)c1cnn([C@H]2C[C@H](NC(=O)c3cc(-c4ccccc4)on3)C2)c1 | ** (activity ≥200% of VX-809 (1 uM) with compound at 10 uM and VX-809 at 1 uM)
O=C(N[C@H]1CC[C@@H](c2nnc(CO)o2)CC1)c1cc(-c2ccccc2)on1 | * (activity 100-200% of VX-809 (1 uM) with compound at 10 uM and VX-809 at 1 uM)

Structure (SMILES) | Ieq (% VX-809)
C[C@@H](O)c1nnc([C@H]2C[C@@H](NC(=O)c3cc(-c4ccc(F)c(F)c4)on3)C2)o1 | * (activity 100-200% of VX-809 (1 uM) with compound at 10 uM and VX-809 at 1 uM)
O=C(N[C@H]1C[C@@H](c2nnc([C@@H](O)CO)s2)C1)c1cc(-c2ccccc2)on1 | ** (activity ≥200% of VX-809 (1 uM) with compound at 10 uM and VX-809 at 1 uM)
O=C(N[C@H]1C[C@@H](c2nc(CO)no2)C1)c1cc(-c2ccccc2)on1 | ** (activity ≥200% of VX-809 (1 uM) with compound at 10 uM and VX-809 at 1 uM)
C[C@@H](O)c1nnc([C@H]2C[C@@H](NC(=O)c3cc(-c4cccc(O)c4)on3)C2)o1 | * (activity 100-200% of VX-809 (1 uM) with compound at 10 uM and VX-809 at 1 uM)
C[C@@H](O)c1nnc(C2CCCC(NC(=O)c3cc(-c4ccccc4)on3)C2)o1 (some centres unmarked) | * (activity 100-200% of VX-809 (1 uM) with compound at 10 uM and VX-809 at 1 uM)
C[C@@H](OC(=O)c1ccccc1)c1nnc([C@H]2C[C@H](NC(=O)c3cc(-c4ccccc4)on3)C2)o1 | * (activity 100-200% of VX-809 (1 uM) with compound at 10 uM and VX-809 at 1 uM)
C[C@H](O)c1noc([C@H]2C[C@@H](NC(=O)c3cc(-c4ccccc4)on3)C2)n1 | * (activity 100-200% of VX-809 (1 uM) with compound at 10 uM and VX-809 at 1 uM)
O=C(NC1CC(n2cc(CO)cn2)C1)c1cc(-c2ccccc2)on1 (centres unmarked) | ** (activity ≥200% of VX-809 (1 uM) with compound at 10 uM and VX-809 at 1 uM)
C[C@@H](O)c1cnn([C@H]2C[C@H](NC(=O)c3cc(-c4ccccc4)on3)C2)c1 | ** (activity ≥200% of VX-809 (1 uM) with compound at 10 uM and VX-809 at 1 uM)
O=C(N[C@H]1C[C@H](n2ccc(CO)n2)C1)c1cc(-c2ccccc2)on1 | ** (activity ≥200% of VX-809 (1 uM) with compound at 10 uM and VX-809 at 1 uM)
C[C@@H](O)c1noc(C2CC(NC(=O)c3cc(-c4ccccc4)on3)C2)n1 (some centres unmarked) | ** (activity ≥200% of VX-809 (1 uM) with compound at 10 uM and VX-809 at 1 uM)
O=C(NC1CCCC(n2cc(CO)nn2)C1)c1cc(-c2ccccc2)on1 (centres unmarked) | * (activity 100-200% of VX-809 (1 uM) with compound at 10 uM and VX-809 at 1 uM)
C[C@@H](O)c1ccn([C@H]2C[C@H](NC(=O)c3cc(-c4ccccc4)on3)C2)n1 | ** (activity ≥200% of VX-809 (1 uM) with compound at 10 uM and VX-809 at 1 uM)
C[C@H](O)c1nnc(C[C@H]2C[C@@H](NC(=O)c3cc(-c4ccccc4)on3)C2)s1 | ** (activity ≥200% of VX-809 (1 uM) with compound at 10 uM and VX-809 at 1 uM)
C[C@@H](O)c1cn([C@H]2C[C@H](NC(=O)c3cc(-c4ccccc4)on3)C2)nn1 | ** (activity ≥200% of VX-809 (1 uM) with compound at 10 uM and VX-809 at 1 uM)
CC(C)CO[C@H](C)c1nnc([C@H]2C[C@H](NC(=O)c3cc(-c4ccccc4)on3)C2)o1 | * (activity 100-200% of VX-809 (1 uM) with compound at 10 uM and VX-809 at 1 uM)
O=C(N[C@H]1C[C@H](CCO)C1)c1cc(-c2ccccc2)on1 | ** (activity ≥200% of VX-809 (1 uM) with compound at 10 uM and VX-809 at 1 uM)
CC(=O)O[C@H](C)c1nnc([C@H]2C[C@H](NC(=O)c3cc(-c4ccccc4)on3)C2)o1 | ** (activity ≥200% of VX-809 (1 uM) with compound at 10 uM and VX-809 at 1 uM)
O=C(N[C@H]1C[C@@H](CCO)C1)c1cc(-c2ccccc2)on1 | ** (activity ≥200% of VX-809 (1 uM) with compound at 10 uM and VX-809 at 1 uM)
O=C(N[C@H]1C[C@H](n2cc(CO)cn2)C1)c1cc(-c2ccccc2)on1 | * (activity 100-200% of VX-809 (1 uM) with compound at 10 uM and VX-809 at 1 uM)
